From patent US8080529B2, “Macrolides with anti-inflammatory activity” (Glaxo Group Limited, priority 2005, dated 2011)
Where two headings read alike, the source gives them in different places.

How the values were obtained:
[1] = tested on: TNF-α; experiment: Lung neutrophilia induced by bacterial lipopolysaccharide in male BALB/cJ mice: TNF-α in BALF; format: in vivo; details: 5 mg i.p.; 24 hours after LPS
Method: (§1) Male BALB/cJ mice (Iffa Credo, France), with average weight 30 g were randomly grouped (n=7 in testing group, 8 in positive control, 7 in negative control). Mice were administered intraperitoneally (i.p.) a single dose of 5 or 2.5 mg of test compound. Two hours after administration, 2 μg of bacterial lipopolysaccharide (LPS), dissolved in PBS in a volume of 60 μL, was intranasally administered to all experimental groups except the negative control group, which received the same volume (60 μL) of vehicle PBS. Animals were sacrificed approximately 24 hours after application of LPS in order to obtain bronchoalveolar lavage fluid (BALF), which was used to determine concentrations of IL-6 and TNF-α, absolute number of cells, and the percentage of neutrophils in BALF. Results are expressed as percentage of decrease of total cell number, relative number of neutrophils, and TNF-α, and IL-6 concentration in BALF of treated animals compared to positive control (LPS stimulated, but untreated animals).
(§2) Results are expressed as percentage of decrease of total cell number, relative number of neutrophils, and TNF-alpha and IL-6 concentration in BALF of treated animals compared to positive control (LPS stimulated, but untreated animals).

[2] = tested on: IL-2; experiment: Inhibition of IL-2 production by PHA-stimulated human PBMC in vitro; format: cell-based; details: 3 days; for inhibition at 10 µM / inhibition at 50 µM: Homo sapiens, 72 h, read-out: Percentage of inhibition of IL-2 production
Method: (§3) Heparinized peripheral blood was obtained from healthy donors, and peripheral blood mononuclear cells (PBMC) were isolated by Histopaque 1077 (Sigma, USA) density centrifugation at 400×g for 30 minutes. Collected PBMC were centrifuged in plasma at 400×g for 10 min, resuspended and washed in RPMI 1640 (Institute of Immunology, Croatia) by centrifugation.
(§4) Peripheral blood mononuclear cells (PBMC), isolated as described above, were seeded in a 48-well plate at a concentration of 1×10^6 cells per well in the RPMI culture medium described above. Cells were stimulated with 10 μg/mL phytohaemagglutinin (PHA) (Sigma, USA) and incubated at 37° C., 5% CO2 in 90% humidity with tested compounds (10 and 50 μM) for 3 days. Cytokine concentrations were determined in supernatants by sandwich ELISA, using capture and detection antibodies (R&D, USA) according to the manufacturer's recommendations.
(§5) Inhibition (as percentage) was calculated using the following formula: % inhibition=(1−concentration of cytokines in sample/concentration of cytokines in positive control)×100.
(§6) The positive control refers to LPS-, PMA- or zymosan-stimulated samples that were not treated with test compounds.

[3] = tested on: IL-6; experiment: Lung neutrophilia induced by bacterial lipopolysaccharide in male BALB/cJ mice: IL-6 in BALF; format: in vivo; details: 5 mg i.p.; 24 hours after LPS
Method: as §1, §2

[4] = tested on: IL-5; experiment: Inhibition of IL-5 production by PHA-stimulated human PBMC in vitro; format: cell-based; details: 3 days; for inhibition at 10 µM / inhibition at 50 µM: Homo sapiens, 72 h, read-out: Percentage of inhibition of IL-5 production
Method: as §3, §4, §5, §6

[5] = tested on: neutrophils; experiment: Lung neutrophilia induced by bacterial lipopolysaccharide in male BALB/cJ mice: cells in BALF and lung tissue; format: in vivo; details: 5 mg i.p.; 24 hours after LPS
Method: as §1, §2
Besides accumulation of inflammatory cells in BALF, the extent and anatomic site of pulmonary inflammation induced by LPS was assessed 24 hours after PBS or LPS exposure. Accumulation of granulocytes and mononuclear cells in peribronchial (PB) and perivascular (PV) lung tissue areas and in alveolar spaces was monitored following sacrifice of the animals.

[6] = tested on: granulocytes; format: in vitro ADME; details: human, 180 min, 10 μM
Method: (§7) Granulocytes were obtained from heparinized whole blood using density gradiant centrifugation. Erythrocytes were sedimented on 3% dextran T-500 (Amersham Pharmacia Biotech AB, Uppsala, Sweden). Leukocytes were centrifuged on Ficoll (Amersham Pharmacia Biotech AB, Uppsala, Sweden) for 35 min at 600 g at 20° C. The pellet of granulocytes was cleared from remaining erythrocytes by a brief hypotonic lysis.
7.5×10^6 granulocytes, isolated as described above, were suspended in 3 mL of RPMI 1640 (Institute of Immunology, Croatia) containing 10 μM of tested macrolide. Samples were incubated at 37° C. for 180 min. Following incubation, the samples were centrifuged through the layer of Poly(dimethylsiloxane-co-diphenylsiloxane), dihydroxy terminated-silicone oil (Aldrich Chemical Company, Milwaukee, USA). The pellet was resuspended in 0.5% Triton X-100 (Sigma, St. Louis, USA) in deionized water (MilliQ, Millipore Corporation, Bedford, USA). The suspension was sonicated, proteins were precipitated with acetonitrile, and the concentration of macrolide in the supernatants was determined by liquid chromatography-mass spectrometry (LC-MS).
Intracellular concentrations of the test compounds were calculated from the mean cell number recovered after centrifuging through silicone oil. According to the literature, about 1 million neutrophils is considered to have a volume of 0.24 μL (Vazifeh et al., Antimicrob Agents Chemo. 1997; 41: 2099-2107). To estimate the extent of macrolide accumulation, the intracellular to extracellular concentration ratio (I/E) was calculated, where E (due to a large volume of incubation medium) was taken as constant (10 μM). Results are expressed relative to azithromycin according to the following equation: % of azithromycin uptake =(I/E of a substance/I/E of azithromycin)×100. I/E values obtained for azithromycin were 164±10.

[7] = tested on: granulocytes; experiment: Inhibition of degranulation of granulocytes (free neutrophil elastase activity); format: cell-based, human; details: for inhibition at 50 µM / inhibition at 10 µM: Homo sapiens, Neutrophil, read-out: Percentage of inhibition of degranulation of granulocytes
Method: as §7
1×10^6 granulocytes, isolated as described above, were resuspended in RPMI-1640 medium (Institute of Immunology, Croatia), and were incubated with 10 or 50 μM of test compound together with cytochalasine B (5 μg/mL) for 2 h at 37° C. Degranulation then was induced by the addition of 0.1 μM fMLP (Sigma, USA) or 0.5 μM A23187 (Calbiochem, USA). The activity of free neutrophil elastase was determined with a chromogenic substrate specific for human neutrophil elastase, such as N-(methoxysuccinyl)-L-alanyl-L-alanyl-L-prolyl-L-valine 4-nitroanilide (Sigma Chemical Company, St Louis, Mo., USA). Elastase activity, as a marker of primary granules, was assessed in supernatant using a spectrophotometer at an absorbance of 405 nm.
Results are expressed as the percent of inhibition of degranulation in unstimulated cells, and in stimulated cells treated with fMLP or A23187.

## CC[C@H]1OC(=O)[C@H](C)[C@@H](O[C@H]2C[C@@](C)(OC)[C@@H](O)[C@H](C)O2)[C@H](C)[C@@H](O[C@@H]2O[C@H](C)C[C@H](N(C)C)[C@H]2O)[C@](C)(OC)C[C@@H](C)C(=O)[C@H](C)[C@@H](O)[C@]1(C)O [clarithromycin, reference compound]
[1]
  Percentage of decrease of TNF-α concentration in BALF: 78%
[2]; 10 μM
  inhibition at 10 µM: 0%
[2]; 50 μM
  inhibition at 50 µM: 3%
[3]
  Percentage of decrease of IL-6 concentration in BALF: 60%
[4]; 10 μM
  inhibition at 10 µM: 13%
[4]; 50 μM
  inhibition at 50 µM: 47%
[5]
  % decrease of neutrophils in BALF: 36%
  % decrease of total cell no. in BALF: 77%

## CC[C@H]1OC(=O)[C@H](C)[C@@H](O[C@H]2C[C@@](C)(OC)[C@@H](OC(=O)CCN(CC)CC)[C@H](C)O2)[C@H](C)[C@@H](O[C@@H]2O[C@H](C)C[C@H](N(C)C)[C@H]2O)[C@](C)(OC)C[C@@H](C)C(=O)[C@H](C)[C@H]2NC(=O)O[C@@]21C [Example 9, 11,12-Carbamate-11,12-dideoxy-4″-O-(3-diethylamino-propionyl)-6-O-methyl-erythromycin A]
[6]
  Uptake (% azithromycin): 412 % azithromycin

## CC[C@H]1OC(=O)[C@H](C)[C@@H](O[C@H]2C[C@@](C)(OC)[C@@H](OC(=O)CCN(C)C)[C@H](C)O2)[C@H](C)[C@@H](O[C@@H]2O[C@H](C)C[C@H](N(C)C)[C@H]2O)[C@](C)(OC)C[C@@H](C)C(=O)N[C@H](C)[C@@H](O)[C@]1(C)O [Example 12, 4″-O-(3-dimethylamino-propionyl)-6-O-methyl-9a-aza-9a-homoerythromycin A]
[1]
  Percentage of decrease of TNF-α concentration in BALF: 87%
[3]
  Percentage of decrease of IL-6 concentration in BALF: 45%
[5]
  % decrease of neutrophils in BALF: 46%
  % decrease of total cell no. in BALF: 88%

## CC[C@H]1OC(=O)[C@H](C)[C@@H](O[C@H]2C[C@@](C)(OC)[C@@H](O)[C@H](C)O2)[C@H](C)[C@@H](O[C@@H]2O[C@H](C)C[C@H](N(C)C)[C@H]2O)[C@](C)(O)C[C@@H](C)CN(C)[C@H](C)[C@@H](O)[C@]1(C)O [azithromycin, reference compound]
[7]; A23187 0.5 μM, compound 50 μM
  inhibition at 50 µM: 15%
[7]; fMLP 0.1 μM, compound 50 μM
  inhibition at 50 µM: 36%
[6]
  Uptake (% azithromycin): 100 % azithromycin
  intracellular to extracellular concentration ratio (I/E): 164±10
[1]
  Percentage of decrease of TNF-α concentration in BALF: 66%
[3]
  Percentage of decrease of IL-6 concentration in BALF: 72%
[5]
  % decrease of neutrophils in BALF: 37%
  % decrease of total cell no. in BALF: 77%

## CC[C@H]1OC(=O)[C@H](C)[C@@H](O[C@H]2C[C@@](C)(OC)[C@@H](OC(=O)CCN(CC)CC)[C@H](C)O2)[C@H](C)[C@@H](O[C@@H]2O[C@H](C)C[C@H](NC)[C@H]2O)[C@](C)(OC)C[C@@H](C)C(=O)N[C@H](C)[C@@H](O)[C@]1(C)O [Example 54, 3′-N-Demethyl-4″-O-(3-diethylaminopropionyl)-6-O-methyl-9a-aza-9a-homoerythromycin A]
[1]
  Percentage of decrease of TNF-α concentration in BALF: 100%
[3]
  Percentage of decrease of IL-6 concentration in BALF: 100%
[5]
  % decrease of neutrophils in BALF: 70%
  % decrease of total cell no. in BALF: 90%

## CC[C@H]1OC(=O)[C@H](C)C(O[C@H]2C[C@@](C)(OC)[C@@H](OC(=O)CCN(CC)CC)[C@H](C)O2)[C@H](C)[C@@H](O[C@@H]2O[C@H](C)C[C@H](N(C)C)[C@H]2O)[C@](C)(OC)C[C@@H](C)C(=O)[C@H](C)[C@H](O)[C@]1(C)O (stereo partly shown) [Example 49, 4″-O-(3-Diethylamino-propionyl)-6-O-methylerithromycin A]
[7]; A23187 0.5 μM, compound 10 μM
  inhibition at 10 µM: 10%
[7]; A23187 0.5 μM, compound 50 μM
  inhibition at 50 µM: 51%
[7]; fMLP 0.1 μM, compound 10 μM
  inhibition at 10 µM: 47%
[7]; fMLP 0.1 μM, compound 50 μM
  inhibition at 50 µM: 72%
[6]
  Uptake (% azithromycin): >600 % azithromycin
[2]; 10 μM
  inhibition at 10 µM: 51%
[2]; 50 μM
  inhibition at 50 µM: 100%
[4]; 10 μM
  inhibition at 10 µM: 59%
[4]; 50 μM
  inhibition at 50 µM: 81%

## CCC1OC(=O)C(C)C(OC2CC(C)(OC)C(OC(=O)CCN(CC)CC)C(C)O2)C(C)C(OC2OC(C)CC(N(C)C)C2O)C(C)(OC)CC(C)C(=O)NC(C)C(O)C1(C)O (stereo not shown) [Example 8, 4″-O-(3-Diethylamino-propionyl)-6-O-methyl-9a-aza-9a-homoerythromycin A]
[7]; A23187 0.5 μM, compound 10 μM
  Percentage of inhibition of degranulation of granulocytes: 10%
[7]; A23187 0.5 μM, compound 50 μM
  Percentage of inhibition of degranulation of granulocytes: 24%
[7]; fMLP 0.1 μM, compound 10 μM
  Percentage of inhibition of degranulation of granulocytes: 52%
[7]; fMLP 0.1 μM, compound 50 μM
  Percentage of inhibition of degranulation of granulocytes: 72%
[1]
  Percentage of decrease of TNF-α concentration in BALF: 69%
[2]; 10 μM
  Percentage of inhibition of IL-2 production: 100%
[2]; 50 μM
  Percentage of inhibition of IL-2 production: 100%
[3]
  Percentage of decrease of IL-6 concentration in BALF: 67%
[4]; 10 μM
  Percentage of inhibition of IL-5 production: 34%
[4]; 50 μM
  Percentage of inhibition of IL-5 production: 85%
[5]
  % decrease of neutrophils in BALF: 52%
  % decrease of total cell no. in BALF: 84%

## CC[C@H]1OC(=O)[C@H](C)[C@@H](O[C@H]2C[C@@](C)(OC)[C@@H](OC(=O)CCN(CC)CC)[C@H](C)O2)[C@H](C)[C@@H](O[C@@H]2O[C@H](C)C[C@H](N(C)C)[C@H]2O)[C@](C)(O)C[C@@H](C)CN(C)[C@H](C)[C@@H](O)[C@]1(C)O [Example 48, 4″-O-(3-diethylamino-propionyl)-azithromycin]
[6]
  Uptake (% azithromycin): 125 % azithromycin
[1]
  Percentage of decrease of TNF-α concentration in BALF: 85%
[3]
  Percentage of decrease of IL-6 concentration in BALF: 9%
[5]
  % decrease of neutrophils in BALF: 66%
  % decrease of total cell no. in BALF: 79%

## CC[C@H]1OC(=O)[C@H](C)[C@@H](O[C@H]2C[C@@](C)(OC)[C@@H](OC(=O)CCN(CC)CC)[C@H](C)O2)[C@H](C)[C@@H](O[C@@H]2O[C@H](C)C[C@H](N(C)C)[C@H]2O)[C@](C)(OC)C[C@@H](C)NC(=O)[C@H](C)[C@@H](O)[C@]1(C)O [Example 3, 4″-O-(3-Diethylamino-Propionyl)-6-O-methyl-8a-aza-8a-homoerythromycin A]
[6]
  Uptake (% azithromycin): 15 % azithromycin
